Data published in ChEMBL document CHEMBL4602679, “Polyesterified Sesquiterpenoids from the Seeds of Celastrus paniculatus as Lifespan-Extending Agents for the Nematode Caenorhabditis elegans” (2020).

Key:
Caenorhabditis elegans [1] = assay: Induction of lifespan expansion in late L4 larval stage of Caenorhabditis elegans Bristol N2 assessed as survival time at 50 uM (reference value: 15.19 =/- 0.53 day); format: functional
Caenorhabditis elegans [2] = assay: Induction of lifespan expansion in late L4 larval stage of Caenorhabditis elegans Bristol N2 assessed as increase in survival time at 50 uM relative to control; format: functional

Structure (SMILES) | Survival (Caenorhabditis elegans [1]) [days] | survival at 50 µM (Caenorhabditis elegans [2]) [%]
CC(=O)OC[C@@]12[C@@H](OC(C)=O)CC[C@@H](C)[C@@]13C[C@@H]([C@H](OC(C)=O)[C@@H]2OC(=O)c1ccoc1)C(C)(C)O3 | 16.38 | 
CC(=O)OC[C@@]12[C@@H](OC(C)=O)CC[C@@H](C)[C@]13OC(C)(C)[C@H]([C@@H](OC(C)=O)[C@@H]2OC(=O)c1ccoc1)[C@H]3OC(C)=O | 16.83 | 11
CC(=O)OC[C@@]12[C@@H](OC(C)=O)CC[C@](C)(O)[C@]13OC(C)(C)[C@H]([C@H](OC(=O)c1ccoc1)[C@@H]2OC(=O)c1ccoc1)[C@H]3OC(C)=O | 17.39 | 14
CC(=O)OC[C@@]12[C@@H](OC(C)=O)CC[C@](C)(O)[C@]13OC(C)(C)[C@H]([C@H](OC(C)=O)[C@H]2OC(=O)c1ccoc1)[C@H]3OC(C)=O | 17.56 | 16
CC(=O)OC[C@@]12[C@@H](OC(C)=O)CC[C@](C)(O)[C@]13OC(C)(C)[C@H]([C@@H](OC(C)=O)[C@@H]2OC(=O)c1ccoc1)[C@H]3OC(C)=O | 15.29 | 
CC(=O)OC[C@@]12[C@@H](OC(C)=O)CC[C@@H](C)[C@]13OC(C)(C)[C@H]([C@H](OC(C)=O)[C@H]2OC(=O)c1ccccc1)[C@H]3OC(C)=O | 17.77 | 17
CC(=O)OC[C@@]12[C@@H](OC(C)=O)CC[C@@H](C)[C@@]13C[C@@H]([C@H](OC(C)=O)[C@H]2OC(=O)c1ccoc1)C(C)(C)O3 | 17 | 12
CC(=O)O[C@H]1CC[C@](C)(O)[C@]23OC(C)(C)[C@H]([C@H](OC(=O)c4ccoc4)[C@H](OC(=O)c4ccoc4)[C@]12CO)[C@H]3OC(C)=O | 18 | 18
CC(=O)OC[C@]12[C@@H](OC(=O)c3ccoc3)[C@@H](OC(C)=O)[C@@H]3C[C@]1(OC3(C)C)[C@H](C)C[C@@H](OC(C)=O)[C@@H]2OC(C)=O | 15.46 | 
CC(=O)OC[C@@]12[C@@H](OC(C)=O)CC[C@](C)(O)[C@]13OC(C)(C)[C@H]([C@H](OC(C)=O)[C@@H]2OC(=O)c1ccoc1)[C@H]3OC(C)=O | 17.67 | 16
